In patent US11261220B2, “Salmonella siiE-derived peptides for manipulation of long-lived plasma cells” (DEUTSCHES RHEUMA-FORSCHU[…], priority 2017, dated 2022):

How the values were obtained:
[1] = tested on: B cells and IgG-secreting plasma cells in the BM; conditions: i.p. twice a day 5 μg for 4 days
Protocol: C57BL/6 mice were injected i.p. twice a day with 5 μg of AMD3100 for 4 days. B220+cells and IgG-secreting plasma cells were analyzed on day 4 by flow cytometry (H) and by ELISpot assay (I), respectively. n=5-6. The data are representative of at least two independent experiments. *p<0.05, **p<0.01, ***p<0.001.
To count Ig-secreting cells, MultiScreen filter plates with PVDF membrane (Merck) were activated for 1 min with 35% ethanol followed by washing and were coated with 7.2 μg/ml of goat anti-mouse Ig, F(ab′)2 fragment (Jackson ImmunoResearch) overnight at 4° C. After washing and blocking with RPMI1640/10% FCS, diluted fresh cells were added and incubated for 5 h at 37° C. Following incubation, alkaline phosphatase-conjugated anti-IgG, IgG1, IgM or IgA (Southern Biotech) was added for 1 h at 37° C. and spots were visualized with BCIP/NBT Plus substrate (Mabtech) and were counted by ELISpot reader (AID).

[2] = tested on: anti-DNA IgG-secreting plasma cells in the BM; assay: Murine model of systemic lupus erythematosus, anti-DNA IgG ELISpot in BM; type: in vivo; conditions: NZB/VV Fl female mice 5-6 months old, i.p. 100 μg on days 0, 3, 7 and 10, ELISpot on day 11
Protocol: FIG. 15. SiiE129 peptide reduce numbers of DNA-specific IgG-secreting plasma cells in the bone marrow. […] NZB/VV Fl female mice (5-6 months old) received i.p. 100 μg peptide coding SiiE amino acid 129-168 on days 0, 3, 7 and 10 and on day 11 were analyzed for anti-DNA IgG-secreting cells in the BM by ELISpot assay. n=5-6. The data are representative of two independent experiments.
NZB/VV Fl female mice (5-6 months old) received i.p. 100 μg peptide coding SiiE amino acid 129-168 on days 0, 3, 7 and 10 and on day 11 were analyzed for anti-DNA IgG-secreting cells in the BM by ELISpot assay.

[3] = tested on: BM IgG-secreting plasma cells; assay: ELISpot count of Ig-secreting cells the day after i.p. SiiE peptide; type: in vivo; conditions: C57BL/6 mice, i.p. 100 μg peptide, analyzed on the next day
Protocol: FIG. 5. Identification of the microbial component reducing numbers of BM IgG-secreting plasma cells. (A) Salmonella colonizes in the spleen and liver but not in the BM. The CFU of Salmonella in the spleen, liver and BM of Salmonella-infected mice on day 4 after infection was counted. The dotted line represents the limit of detection. n=3-6. […] C57BL/6 mice received 200 μl of LB medium, untreated or LPS-depleted culture supernatants from flagellin-deficient attenuated Salmonella or Escherichia coli (ΔLonΔFIhD) and on the next day (24 h later) were analyzed for IgG-secreting cells by ELISpot assay. n=8. […] Mice were infected i.p. with 200 μl of LB and LPS-depleted supernatant from flagellin-deficient attenuated Salmonella on day 41 and analyzed for IgG-secreting cells on the next day. n=6. […] C57BL/6 mice received i.p. 200 μl of LB medium and LPS-depleted supernatants from attenuated Salmonella ΔLon or ΔLonΔSiiE and on the next day were analyzed for IgG-secreting cells by ELISpot assay. n=5. […] C57BL/6 mice received i.p. 100 μg peptide coding SiiE amino acid 129-168 and on the next day were analyzed for IgG- and IgM-secreting cells in the BM and spleen. n=5. […] BM or splenic cells from C57BL/6 mice were incubated with 30 μg/ml of GST-SiiE 97-170 or GST protein, stained with anti-GST antibodies, and analyzed by flow cytometry. n=3. […] Adherent cells were counted after washing.

Row | Molecule | B cell numbers in the BM ([1]; B220+ cells by flow cytometry on day 4) | numbers of IgG-secreting plasma cells in the BM ([1]; ELISpot on day 4) | number of anti-DNA IgG-secreting cells in bone marrow [2] | number of anti-DNA IgG-secreting cells in bone marrow ([2]; listed as SiiE129 peptide) | numbers of BM IgG-secreting plasma cells [3] | numbers of BM IgG-secreting plasma cells ([3]; listed as peptide coding SiiE amino acid 129-168)
1 | c1cc(CN2CCCNCCNCCCNCC2)ccc1CN1CCCNCCNCCCNCC1 [AMD3100] | numerically reduces B cells | but not IgG-secreting plasma cells in the BM | – | – | – | –
2 | KEADKAKEEAEKAKEAAEKALNEAFEVQNSSKQIEEMLQN (listed as Salmonella enterica) [SiiE 129-168] | – | – | reduces the number of Anti-DNA IgG-secreting cells in bone marrow | reduces numbers of anti-DNA IgG-secreting plasma cells in the BM | markedly reduced numbers of BM IgG-secreting plasma cells | reduces numbers of BM IgG-secreting plasma cells
